According to EP4707280A1, “1,4-CINEOLE DERIVATIVE AND INTERMEDIATE THEREOF, HERBICIDE CONTAINING SAID DERIVATIVE AS ACTIVE INGREDIENT, METHOD FOR USING HERBICIDE, AND METHOD FOR PREPARING AGROCHEMICAL COMPOSITION” (HOKKO CHEMICAL INDUSTRY CO., LTD., priority 2023, dated 2024):

Assays:
Type in all cases: in vivo
[1] = test system: Echinochloa crus-galli; assay: Test Example 8: herbicidal effect test by stem and leaf treatment in upland field (low dose); details: Echinochloa crus-galli; 7.5 g per 10 ares; sprayed seven days after sowing, upland soil; 14 days after application; read-out: weed inhibition rate
[2] = test system: Digitaria ciliaris; assay: as above; details: Digitaria ciliaris; 7.5 g per 10 ares; sprayed seven days after sowing, upland soil; 14 days after application; read-out: weed inhibition rate
[3] = test system: Monochoria vaginalis; assay: Test Example 2: herbicidal effect test by application during growth period of paddy rice; details: Pontederia vaginalis; 120 g per 10 ares; applied seven days after sowing, flooded pots; 14 days after application; read-out: weed inhibition rate
Method in brief: (§1)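 Weeds sown into puddled, flooded paddy soil received a post-emergence water application of emulsifiable concentrate at 120 g active ingredient per 10 ares, seven days after sowing. Herbicidal effect was rated 14 days later as inhibition (%).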

[4] = test system: Echinochloa crus-galli var. formosensis; assay: as above; details: Echinochloa crus-galli; 120 g per 10 ares; applied seven days after sowing, flooded pots; 14 days after application; read-out: weed inhibition rate
Method in brief: as §1

[5] = test system: Scirpus juncoides; assay: as above; details: Schoenoplectiella juncoides; 120 g per 10 ares; applied seven days after sowing, flooded pots; 14 days after application; read-out: weed inhibition rate
Method in brief: as §1

[6] = test system: Echinochloa crus-galli; assay: Test Example 4: herbicidal effect test by stem and leaf treatment in upland field; details: Echinochloa crus-galli; 120 g per 10 ares; sprayed seven days after sowing, upland soil; 14 days after application; read-out: weed inhibition rate
[7] = test system: Monochoria vaginalis; assay: Test Example 1: herbicidal effect test by soil application in paddy rice; details: Pontederia vaginalis, soil, 336 h; 120 g active ingredient per 10 ares; applied immediately after sowing, flooded pots; 14 days after application; read-out: weed inhibition rate
Method in brief: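 Inhibition rate (%) read 14 days after treatment, duplicate pots. Water-diluted emulsifiable concentrate was applied by dropper at 120 g active ingredient/10 ares right after sowing. Seeds (30 per species, 0–1 cm deep) went into puddled paddy soil kept flooded at about 3 cm in a greenhouse.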

[8] = test system: Echinochloa crus-galli var. formosensis; assay: Test Example 6: herbicidal effect test by application during growth period of paddy rice (low dose); details: Echinochloa crus-galli; 7.5 g per 10 ares; applied seven days after sowing, flooded pots; 14 days after application; read-out: weed inhibition rate
Method in brief: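 Puddled, fertilised paddy soil was sown with 30 seeds per species and flooded to about 3 cm. After 7 days in a glass greenhouse, the diluted emulsifiable concentrate went into the water by dropper at 7.5 g/10 a. Effect scored at 14 days.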

[9] = test system: Echinochloa crus-galli var. formosensis; assay: Test Example 5: herbicidal effect test by soil application in paddy rice (low dose); details: Echinochloa crus-galli, soil, 336 h; 7.5 g per 10 ares; applied immediately after sowing, flooded pots; 14 days after application; read-out: weed inhibition rate
Method in brief: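 Pots of puddled, fertilized paddy soil receive 30 seeds per species at 0–1 cm depth and are flooded to about 3 cm. The diluted emulsifiable concentrate is then dropped onto the water, delivering 7.5 g active ingredient per 10 ares. Greenhouse grown; herbicidal effect scored 14 days later, two replicates.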

[10] = test system: Echinochloa crus-galli; assay: Test Example 7: herbicidal effect test by soil application in upland field (low dose); details: Echinochloa crus-galli, 7.5 g per 10 ares, sprayed one day after sowing, 14 days after application, read-out: weed inhibition rate
Method in brief: (§2)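 Low-dose soil treatment at 7.5 g a.i. per 10 a, applied as a diluted emulsifiable concentrate sprayed onto the soil surface one day after sowing in upland alluvial loam. Duplicate pots; percent weed inhibition is read 14 days after application.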

[11] = test system: Digitaria ciliaris; assay: as above; details: Digitaria ciliaris, 7.5 g per 10 ares, sprayed one day after sowing, 14 days after application, read-out: weed inhibition rate
Method in brief: as §2

CC(C)[C@]12C[C@@H](OCc3c(F)cccc3F)[C@](C)(C[C@@H]1Br)O2 [1-21, (1S,2R,4R,5S)-5-bromo-2-[(2,6-difluorophenyl)methoxy]-1-methyl-4-isopropyl-7-oxabicyclo[2.2.1]heptane]
≥ 80%: inhibition at 75 g/ha [1] | inhibition at 75 g/ha [2] | inhibition at 1200 g/ha [3] | inhibition at 1200 g/ha [4] | inhibition at 1200 g/ha [5] | inhibition at 1200 g/ha [6] | pest or weed control at 1200 g/ha [7] | inhibition at 75 g/ha [8] | inhibition at 75 g/ha [9] | inhibition at 75 g/ha [10] | inhibition at 75 g/ha [11]

Cc1ccccc1CO[C@@H]1C[C@]2(C(C)C)O[C@@]1(C)C[C@@H]2O [1-24, (1R,2S,4S,5R)-1-isopropyl-4-methyl-5-((2-methylbenzyl)oxy)-7-oxabicyclo[2.2.1]heptan-2-ol]
≥ 80%: inhibition at 75 g/ha [1] | inhibition at 75 g/ha [2] | inhibition at 1200 g/ha [3] | inhibition at 1200 g/ha [4] | inhibition at 1200 g/ha [5] | inhibition at 1200 g/ha [6] | pest or weed control at 1200 g/ha [7] | inhibition at 75 g/ha [8] | inhibition at 75 g/ha [9] | inhibition at 75 g/ha [10] | inhibition at 75 g/ha [11]

CC(C)[C@]12C[C@@H](OCc3ccccc3F)[C@](C)(C[C@@H]1O)O2 [1-30, (1R,2S,4S,5R)-5-((2-fluorobenzyl)oxy)-1-isopropyl-4-methyl-7-oxabicyclo[2.2.1]heptan-2-ol]
≥ 80%: inhibition at 75 g/ha [1] | inhibition at 75 g/ha [2] | inhibition at 1200 g/ha [3] | inhibition at 1200 g/ha [4] | inhibition at 1200 g/ha [5] | inhibition at 1200 g/ha [6] | pest or weed control at 1200 g/ha [7] | inhibition at 75 g/ha [8] | inhibition at 75 g/ha [9] | inhibition at 75 g/ha [10] | inhibition at 75 g/ha [11]

CC(C)[C@]12C[C@@H](OCc3c(F)cccc3F)[C@](C)(C[C@@H]1O)O2 [1-41, (1R,2S,4S,5R)-5-((2,6-difluorobenzyl)oxy)-1-isopropyl-4-methyl-7-oxabicyclo[2,2,1]heptan-2-ol]
≥ 80%: inhibition at 75 g/ha [1] | inhibition at 75 g/ha [2] | inhibition at 1200 g/ha [3] | inhibition at 1200 g/ha [4] | inhibition at 1200 g/ha [5] | inhibition at 1200 g/ha [6] | pest or weed control at 1200 g/ha [7] | inhibition at 75 g/ha [8] | inhibition at 75 g/ha [9] | inhibition at 75 g/ha [10] | inhibition at 75 g/ha [11]

Cc1ccccc1CO[C@@H]1C[C@]2(C(C)C)O[C@@]1(C)CC2C (stereo partly drawn) [1-83, (1S,2R,4R)-4-isopropyl-1,5-dimethyl-2-((2-methylbenzyl)oxy)-7-oxabicyclo[2.2.1]heptane]
≥ 80%: inhibition at 75 g/ha [1] | inhibition at 75 g/ha [2] | inhibition at 1200 g/ha [3] | inhibition at 1200 g/ha [4] | inhibition at 1200 g/ha [5] | inhibition at 1200 g/ha [6] | pest or weed control at 1200 g/ha [7] | inhibition at 75 g/ha [8] | inhibition at 75 g/ha [9] | inhibition at 75 g/ha [10] | inhibition at 75 g/ha [11]

CC(C)[C@]12C[C@@H](OCc3ccccc3F)[C@](C)(CC1C)O2 (stereo partly drawn) [1-92, (1S,2R,4R)-2-((2-fluorobenzyl)oxy)-4-isopropyl-1,5-dimethyl-7-oxabicyclo[2.2.1]heptane]
≥ 80%: inhibition at 75 g/ha [1] | inhibition at 75 g/ha [2] | inhibition at 1200 g/ha [3] | inhibition at 1200 g/ha [4] | inhibition at 1200 g/ha [5] | inhibition at 1200 g/ha [6] | pest or weed control at 1200 g/ha [7] | inhibition at 75 g/ha [8] | inhibition at 75 g/ha [9] | inhibition at 75 g/ha [10] | inhibition at 75 g/ha [11]

CC(C)[C@]12C[C@@H](OCc3c(F)cccc3F)[C@](C)(CC1C)O2 (stereo partly drawn) [1-111, (1S,2R,4R)-2-((2,6-difluorobenzyl)oxy)-4-isopropyl-1,5-dimethyl-7-oxabicyclo[2.2.1]heptane]
≥ 80%: inhibition at 75 g/ha [1] | inhibition at 75 g/ha [2] | inhibition at 1200 g/ha [3] | inhibition at 1200 g/ha [4] | inhibition at 1200 g/ha [5] | inhibition at 1200 g/ha [6] | pest or weed control at 1200 g/ha [7] | inhibition at 75 g/ha [8] | inhibition at 75 g/ha [9] | inhibition at 75 g/ha [10] | inhibition at 75 g/ha [11]

CO[C@H]1C[C@]2(C)O[C@@]1(C(C)C)C[C@H]2OCc1ccccc1F [1-156, (1S,2R,4R,5S)-2-((2-fluorobenzyl)oxy)-4-isopropyl-5-methoxy-1-methyl-7-oxabicyclo[2.2.1]heptane]
≥ 80%: inhibition at 75 g/ha [1] | inhibition at 75 g/ha [2] | inhibition at 1200 g/ha [3] | inhibition at 1200 g/ha [4] | inhibition at 1200 g/ha [5] | inhibition at 1200 g/ha [6] | pest or weed control at 1200 g/ha [7] | inhibition at 75 g/ha [8] | inhibition at 75 g/ha [9] | inhibition at 75 g/ha [10] | inhibition at 75 g/ha [11]

CCO[C@H]1C[C@]2(C)O[C@@]1(C(C)C)C[C@H]2OCc1ccccc1F [1-183, (1S,2R,4R,5S)-5-ethoxy-2-[(2-fluorophenyl)methoxy]-1-methyl-4-isopropyl-7-oxabicyclo[2.2.1]heptane]
≥ 80%: inhibition at 75 g/ha [1] | inhibition at 75 g/ha [2] | inhibition at 1200 g/ha [3] | inhibition at 1200 g/ha [4] | inhibition at 1200 g/ha [5] | inhibition at 1200 g/ha [6] | pest or weed control at 1200 g/ha [7] | inhibition at 75 g/ha [8] | inhibition at 75 g/ha [9] | inhibition at 75 g/ha [10] | inhibition at 75 g/ha [11]

CC(C)[C@]12C[C@@H](OCc3cccc(F)c3)[C@](C)(C[C@@H]1Br)O2 [1-690, (1S,2R,4R,5S)-5-bromo-2-[(3-fluorophenyl)methoxy]-1-methyl-4-isopropyl-7-oxabicyclo[2.2.1]heptane]
≥ 80%: inhibition at 75 g/ha [1] | inhibition at 75 g/ha [2] | inhibition at 1200 g/ha [3] | inhibition at 1200 g/ha [4] | inhibition at 1200 g/ha [5] | inhibition at 1200 g/ha [6] | pest or weed control at 1200 g/ha [7] | inhibition at 75 g/ha [8] | inhibition at 75 g/ha [9] | inhibition at 75 g/ha [10] | inhibition at 75 g/ha [11]
